Data set [1] can be described thus: physchem. It is filed as physicochemical. Here is the method:
The solubility of one of the compounds described herein, 5-fluoro-8-{4-[4-(6-methoxyquinolin-8-yl)piperazin-1-yl]piperidin-1-yl}quinoline, as a function of pH was determined experimentally. In the study, suspensions of about 0.5-40 mg/mL of the compound were prepared in water and various concentrations of hydrochloric acid and sodium hydroxide. The suspensions were measured for pH after equilibration at ambient temperature. The suspensions were then filtered through a suitable filter for concentrated samples and centrifuged for lower concentrations, with confirmation that the supernatants were particulate-free by laser. The filtrates were then analyzed by HPLC.

For data set [2] the following is noted: not told.

Like-named read-outs stand apart in the source and are kept apart here.

Results on two compounds are retold here after US20080199518A1, “Controlled-release formulation of piperazine-piperidine antagonists and agonists of the 5-HT1A receptor having enhanced intestinal dissolution” (priority 2006, published 2008).

For `COc1cc(N2CCN(C3CCN(c4ccc(F)c5cccnc45)CC3)CC2)c2ncccc2c1.O=C(O)CCC(=O)O.O=C(O)CCC(=O)O.O=C(O)CCC(=O)O` [5-fluoro-8-{4-[4-(6-methoxyquinolin-8-yl)piperazin-1-yl]piperidin-1-yl}quinoline trisuccinate], the solubility entry in data set [1] (pH greater than about six) is “sub-microgram per milliliter level”; in data set [1] (water, thermodynamic from solid, trisuccinate salt, aqueous, read-out: aqueous solubility) it was ~1000 µg/mL.

As for `COc1cc(N2CCN(C3CCN(c4ccc(F)c5cccnc45)CC3)CC2)c2ncccc2c1` [5-fluoro-8-{4-[4-[(6-methoxyquinolin-8-yl)piperazin-1-yl]piperidin-1-yl}quinoline], in data set [1], the “solubility around neutral pH of the lower gastrointestinal tract” value is given as “less than 1 μg/mL” and the water solubility entry is given as “approximately 0.04 μg/mL”. Further, the permeability result in data set [2] is “high permeability”.
